What was measured:
Settings in all cases: 72 h
[1] = tested on: HepG2; assay: relative viability EC50 (midpoint between 100% and the lowest measured viability); higher = less toxic
[2] = tested on: Calu-3; assay: as above
[3] = tested on: U2OS; assay: as above
[4] = tested on: Vero E6; assay: as above
[5] = tested on: Caco-2; assay: as above
[6] = tested on: HepG2; assay: drug sensitivity score (DSS) for viability; higher = more toxic; extreme values may be limits of the assay
[7] = tested on: Calu-3; assay: as above
[8] = tested on: U2OS; assay: as above
[9] = tested on: Vero E6; assay: as above
[10] = tested on: Caco-2; assay: as above
[11] = tested on: HepG2; assay: cell viability relative to DMSO; higher = less toxic
[12] = tested on: Calu-3; assay: as above
[13] = tested on: U2OS; assay: as above
[14] = tested on: Vero E6; assay: as above
[15] = tested on: Caco-2; assay: as above

CN1C(=O)c2c(nn(Cc3ccc(-c4cccc(F)n4)cc3)c2Nc2ccccc2)N2C1=N[C@@H]1CCC[C@@H]12 [ITI214]
relative viability EC50 [1]: > 10 µM
relative viability EC50 [2]: > 10 µM
relative viability EC50 [3]: > 10 µM
relative viability EC50 [4]: > 10 µM
relative viability EC50 [5]: > 10 µM
drug sensitivity score [6]: 0.5
drug sensitivity score [7]: 0
drug sensitivity score [8]: 0
drug sensitivity score [9]: 0
drug sensitivity score [10]: 0
cell viability ([11]; 1 nM): 105%
cell viability ([11]; 10 nM): 96.7%
cell viability ([11]; 100 nM): 97.9%
cell viability ([11]; 1000 nM): 102%
cell viability ([11]; 10000 nM): 79.7%
cell viability ([12]; 1 nM): 105%
cell viability ([12]; 10 nM): 87%
cell viability ([12]; 100 nM): 100%
cell viability ([12]; 1000 nM): 101%
cell viability ([12]; 10000 nM): 92.8%
cell viability ([13]; 1 nM): 106%
cell viability ([13]; 10 nM): 102%
cell viability ([13]; 100 nM): 102%
cell viability ([13]; 1000 nM): 96.7%
cell viability ([13]; 10000 nM): 89.3%
cell viability ([14]; 1 nM): 110%
cell viability ([14]; 10 nM): 113%
cell viability ([14]; 100 nM): 99.6%
cell viability ([14]; 1000 nM): 104%
cell viability ([14]; 10000 nM): 97.2%
cell viability ([15]; 1 nM): 87.3%
cell viability ([15]; 10 nM): 104%
cell viability ([15]; 100 nM): 97.4%
cell viability ([15]; 1000 nM): 94.8%
cell viability ([15]; 10000 nM): 117%

O=C(NCCO)c1cc(C(=O)NCCO)cc(C(=O)NCCO)c1 [LM-22A4]
relative viability EC50 [1]: > 10 µM
relative viability EC50 [2]: > 10 µM
relative viability EC50 [3]: > 10 µM
relative viability EC50 [4]: > 10 µM
relative viability EC50 [5]: > 10 µM
drug sensitivity score [6]: 0
drug sensitivity score [7]: 0
drug sensitivity score [8]: 0
drug sensitivity score [9]: 0
drug sensitivity score [10]: 0
cell viability ([11]; 1 nM): 104%
cell viability ([11]; 10 nM): 103%
cell viability ([11]; 100 nM): 101%
cell viability ([11]; 1000 nM): 97.5%
cell viability ([11]; 10000 nM): 102%
cell viability ([12]; 1 nM): 104%
cell viability ([12]; 10 nM): 105%
cell viability ([12]; 100 nM): 97%
cell viability ([12]; 1000 nM): 102%
cell viability ([12]; 10000 nM): 91.9%
cell viability ([13]; 1 nM): 94.6%
cell viability ([13]; 10 nM): 97.7%
cell viability ([13]; 100 nM): 96.1%
cell viability ([13]; 1000 nM): 99.5%
cell viability ([13]; 10000 nM): 93.5%
cell viability ([14]; 1 nM): 105%
cell viability ([14]; 10 nM): 98.3%
cell viability ([14]; 100 nM): 106%
cell viability ([14]; 1000 nM): 98.4%
cell viability ([14]; 10000 nM): 105%
cell viability ([15]; 1 nM): 96.8%
cell viability ([15]; 10 nM): 96.1%
cell viability ([15]; 100 nM): 97.3%
cell viability ([15]; 1000 nM): 99.2%
cell viability ([15]; 10000 nM): 100%

FC(F)(F)c1ccc(Nc2ncnc3cc(-c4ncccc4C(F)(F)F)ccc23)cc1 [MK-2295]
relative viability EC50 [1]: > 10 µM
relative viability EC50 [2]: > 10 µM
relative viability EC50 [3]: > 10 µM
relative viability EC50 [4]: > 10 µM
relative viability EC50 [5]: > 10 µM
drug sensitivity score [6]: 0
drug sensitivity score [7]: 0.5
drug sensitivity score [8]: 0
drug sensitivity score [9]: 0
drug sensitivity score [10]: 1.2
cell viability ([11]; 1 nM): 92.7%
cell viability ([11]; 10 nM): 94.9%
cell viability ([11]; 100 nM): 91.5%
cell viability ([11]; 1000 nM): 116%
cell viability ([11]; 10000 nM): 98.4%
cell viability ([12]; 1 nM): 112%
cell viability ([12]; 10 nM): 96.9%
cell viability ([12]; 100 nM): 101%
cell viability ([12]; 1000 nM): 100%
cell viability ([12]; 10000 nM): 81.9%
cell viability ([13]; 1 nM): 100%
cell viability ([13]; 10 nM): 95.5%
cell viability ([13]; 100 nM): 101%
cell viability ([13]; 1000 nM): 98%
cell viability ([13]; 10000 nM): 97.5%
cell viability ([14]; 1 nM): 99.7%
cell viability ([14]; 10 nM): 98%
cell viability ([14]; 100 nM): 98.3%
cell viability ([14]; 1000 nM): 97.8%
cell viability ([14]; 10000 nM): 95.2%
cell viability ([15]; 1 nM): 100%
cell viability ([15]; 10 nM): 95.8%
cell viability ([15]; 100 nM): 91.9%
cell viability ([15]; 1000 nM): 83.9%
cell viability ([15]; 10000 nM): 90.6%

Cn1cnnc1Sc1c([N+](=O)[O-])ncn1C [MNITMT]
relative viability EC50 [1]: > 10 µM
relative viability EC50 [2]: > 10 µM
relative viability EC50 [3]: > 10 µM
relative viability EC50 [4]: > 10 µM
relative viability EC50 [5]: > 10 µM
drug sensitivity score [6]: 0
drug sensitivity score [7]: 1.7
drug sensitivity score [8]: 0
drug sensitivity score [9]: 0.1
drug sensitivity score [10]: 0
cell viability ([11]; 1 nM): 100%
cell viability ([11]; 10 nM): 99.9%
cell viability ([11]; 100 nM): 93.1%
cell viability ([11]; 1000 nM): 94.1%
cell viability ([11]; 10000 nM): 99.7%
cell viability ([12]; 1 nM): 100%
cell viability ([12]; 10 nM): 111%
cell viability ([12]; 100 nM): 94.9%
cell viability ([12]; 1000 nM): 85.5%
cell viability ([12]; 10000 nM): 92.2%
cell viability ([13]; 1 nM): 102%
cell viability ([13]; 10 nM): 97.7%
cell viability ([13]; 100 nM): 99.5%
cell viability ([13]; 1000 nM): 97.4%
cell viability ([13]; 10000 nM): 98.4%
cell viability ([14]; 1 nM): 105%
cell viability ([14]; 10 nM): 99.3%
cell viability ([14]; 100 nM): 99.2%
cell viability ([14]; 1000 nM): 97.5%
cell viability ([14]; 10000 nM): 88.7%
cell viability ([15]; 1 nM): 99.9%
cell viability ([15]; 10 nM): 96.3%
cell viability ([15]; 100 nM): 104%
cell viability ([15]; 1000 nM): 94.2%
cell viability ([15]; 10000 nM): 95.8%

O=C(NCCCCN1CCN(c2cccc(Cl)c2Cl)CC1)c1ccc2c(c1)Cc1ccccc1-2 [NGB-2904]
relative viability EC50 [1]: > 10 µM
relative viability EC50 [2]: > 10 µM
relative viability EC50 [3]: > 10 µM
relative viability EC50 [4]: > 10 µM
relative viability EC50 [5]: > 10 µM
drug sensitivity score [6]: 0
drug sensitivity score [7]: 0
drug sensitivity score [8]: 0
drug sensitivity score [9]: 0
drug sensitivity score [10]: 0
cell viability ([11]; 1 nM): 107%
cell viability ([11]; 10 nM): 94.1%
cell viability ([11]; 100 nM): 99.3%
cell viability ([11]; 1000 nM): 91.2%
cell viability ([11]; 10000 nM): 92.9%
cell viability ([12]; 1 nM): 94.3%
cell viability ([12]; 10 nM): 97.9%
cell viability ([12]; 100 nM): 86.5%
cell viability ([12]; 1000 nM): 108%
cell viability ([12]; 10000 nM): 99.9%
cell viability ([13]; 1 nM): 93.5%
cell viability ([13]; 10 nM): 102%
cell viability ([13]; 100 nM): 95.6%
cell viability ([13]; 1000 nM): 102%
cell viability ([13]; 10000 nM): 100%
cell viability ([14]; 1 nM): 96.7%
cell viability ([14]; 10 nM): 91.2%
cell viability ([14]; 100 nM): 93.6%
cell viability ([14]; 1000 nM): 89.5%
cell viability ([14]; 10000 nM): 98.3%
cell viability ([15]; 1 nM): 89.4%
cell viability ([15]; 10 nM): 97.2%
cell viability ([15]; 100 nM): 97%
cell viability ([15]; 1000 nM): 109%
cell viability ([15]; 10000 nM): 103%

CC(C)(C)/[N+]([O-])=C/c1ccc(S(=O)(=O)O)cc1S(=O)(=O)O [NXY-059]
relative viability EC50 [1]: > 10 µM
relative viability EC50 [2]: > 10 µM
relative viability EC50 [3]: > 10 µM
relative viability EC50 [4]: > 10 µM
relative viability EC50 [5]: > 10 µM
drug sensitivity score [6]: 0
drug sensitivity score [7]: 0
drug sensitivity score [8]: 0
drug sensitivity score [9]: 0
drug sensitivity score [10]: 0
cell viability ([11]; 1 nM): 101%
cell viability ([11]; 10 nM): 94.4%
cell viability ([11]; 100 nM): 102%
cell viability ([11]; 1000 nM): 100%
cell viability ([11]; 10000 nM): 96.8%
cell viability ([12]; 1 nM): 91.3%
cell viability ([12]; 10 nM): 97%
cell viability ([12]; 100 nM): 98.4%
cell viability ([12]; 1000 nM): 95%
cell viability ([12]; 10000 nM): 95.8%
cell viability ([13]; 1 nM): 94.6%
cell viability ([13]; 10 nM): 100%
cell viability ([13]; 100 nM): 93.4%
cell viability ([13]; 1000 nM): 98.7%
cell viability ([13]; 10000 nM): 106%
cell viability ([14]; 1 nM): 99.1%
cell viability ([14]; 10 nM): 105%
cell viability ([14]; 100 nM): 106%
cell viability ([14]; 1000 nM): 105%
cell viability ([14]; 10000 nM): 101%
cell viability ([15]; 1 nM): 98.5%
cell viability ([15]; 10 nM): 101%
cell viability ([15]; 100 nM): 96.5%
cell viability ([15]; 1000 nM): 105%
cell viability ([15]; 10000 nM): 97.5%

Cc1ccccc1CN1C(=O)C2=C(CCN(Cc3ccccc3)C2)N2CCN=C12 [ONC201]
relative viability EC50 [1]: 2.39 µM
relative viability EC50 [2]: > 10 µM
relative viability EC50 [3]: 3.64 µM
relative viability EC50 [4]: 3.35 µM
relative viability EC50 [5]: 3.72 µM
drug sensitivity score [6]: 6.3
drug sensitivity score [7]: 0.6
drug sensitivity score [8]: 2.8
drug sensitivity score [9]: 3.5
drug sensitivity score [10]: 2.5
cell viability ([11]; 1 nM): 108%
cell viability ([11]; 10 nM): 93.7%
cell viability ([11]; 100 nM): 104%
cell viability ([11]; 1000 nM): 91.6%
cell viability ([11]; 10000 nM): 10.3%
cell viability ([12]; 1 nM): 103%
cell viability ([12]; 10 nM): 103%
cell viability ([12]; 100 nM): 102%
cell viability ([12]; 1000 nM): 106%
cell viability ([12]; 10000 nM): 75.7%
cell viability ([13]; 1 nM): 100%
cell viability ([13]; 10 nM): 102%
cell viability ([13]; 100 nM): 95.4%
cell viability ([13]; 1000 nM): 106%
cell viability ([13]; 10000 nM): 41.1%
cell viability ([14]; 1 nM): 110%
cell viability ([14]; 10 nM): 101%
cell viability ([14]; 100 nM): 103%
cell viability ([14]; 1000 nM): 102%
cell viability ([14]; 10000 nM): 32.2%
cell viability ([15]; 1 nM): 108%
cell viability ([15]; 10 nM): 106%
cell viability ([15]; 100 nM): 93.4%
cell viability ([15]; 1000 nM): 107%
cell viability ([15]; 10000 nM): 44.1%

Reference: the supplement of paper PMC13380429
